In PMC6353801, “Enhanced Anti-diabetic Effect of Berberine Combined With Timosaponin B2 in Goto-Kakizaki Rats, Associated With Increased Variety and Exposure of Effective Substances Through Intestinal Absorption” (Frontiers in Pharmacology, 2019):

Columns and labels:
[1] = system: primary rat hepatocytes; test: Hepatic metabolism in primary hepatocytes; settings: 3 h
[2] = system: GK rats; test: NFBG and FBG levels in GK rats, 6-week oral treatment; format: in vivo, rat; settings: during 6-week treatment, TB-2 33.3, BBR 66.7, TB-2+BBR 100, metformin 200 mg/kg/day
Method: (§1) Four-week-old male GK rats were fed a high-fat diet, and age-matched non-diabetic Wistar rats were fed standard chow as the control group. Under these dietary conditions, blood glucose was estimated each week for 7 weeks in 12-h fasted rats using a portable glucometer (One Touch Sure Step Meter, Johnson & Johnson, United States) by drawing the blood from the tail vein. GK rats with fasting blood glucose levels (FBG) above 16.7 mM were considered as diabetic rats, and only uniformly diabetic rats were used in this study. […] All the drugs were suspended in 0.5% carboxymethylcellulose sodium (CMC-Na) solution for oral gavage (10 ml/kg) once per day (at 9:00) for 6 weeks. Simultaneously, the Wistar and vehicle groups received vehicle over the treatment period. Food consumption and body weight were measured every week throughout the experimental periods. Non-fasting blood glucose (NFBG) levels were determined by collecting blood samples from the tail vein (at 9:00), and FBG levels were determined after a 6-h fast (at 15:00) on days 0, 7, 14, 21, and 42. On day 28, an oral glucose tolerance test (OGTT) was performed after an overnight fast. […] On day 42, the rats were anesthetized with urethane (1.4 g/kg, dissolved in saline) after an overnight fast and were sacrificed to collect the liver, kidney, heart, and spleen. The organs were weighed after washing with saline and drying to calculate the organ coefficient, namely, the ratio between the weight of organs and the body in each rat.

[3] = Body weight, food intake, organ coefficients and side effects in GK rats; format: in vivo, rat
Method: as §1

[4] = usually in various species; ref Liu et al., 2016; cited from earlier work
[5] = Transport in Caco-2 cells; format: in vitro ADME, human; settings: human
Method: The culture medium was changed every other day for the first 7 days and then daily for the next 14 days. […] Prior to the transport experiments, the cell monolayers were washed three times with HBSS at 37°C. […] At the same time, the corresponding opposite side was filled with medium as the receiving chamber. After incubation for 30, 60, 90, and 120 min, 250-μl aliquots of the medium was taken from the receiving chamber at each time point, and prepared for analysis by HPLC–MS/MS. […] where (ΔQ/Δt) is the linear slope of the drug concentration in the receptor chamber over time, A represents the surface area of the membrane (1.12 cm^2), and C0 is the initial concentration of drug in the donor chamber. The efflux ratio (ERpermeability) for BL to AP and AP to BL transport was defined by the following equation: […] where Papp (BL–AP) and Papp (AP–BL) are the apparent permeability of drugs from the basolateral (BL) to apical (AP) and AP to BL sides of the monolayer, respectively.

[6] = Caco-2, no inhibitor, digoxin 10 μM, TB-2 5 μM, BBR 10 μM, n = 3

COc1ccc2cc3[n+](cc2c1OC)CCc1cc2c(cc1-3)OCO2 [BBR, berberine]
share of compound disappearing after incubation ([1]; BBR 1 μM, 37°C): approximately 80% | effect on TB-2 levels after incubation ([1]; TB-2 1 μM, BBR (5 μM, 30 μM)): no improvement | FBG levels compared with the vehicle group (in words) [2]: no significant differences | NFBG levels compared with the vehicle group (in words) [2]: no significant differences | effect on body weight or food consumption vs vehicle ([3]; 6-week oral treatment): no effect | effect on organ coefficients (liver and kidney) vs vehicle ([3]; day 42): limited | bioavailability [4]: < 1% | efflux ratio at 120 min ([5]; Caco-2, Caco-2, no inhibitor, Papp (BL−AP)/Papp (AP−BL), read-out: ERpermeability (efflux ratio)): 71.4 | Papp A→B at 120 min [5, 6]: 0.038 ± 0.011 ×10⁻⁶ cm/s | Papp B→A at 120 min [5, 6]: 2.71 ± 0.355 ×10⁻⁶ cm/s
